In US20040014637A1, “Mechanism for the inactivation of insulin receptor and uses in the treatment of type II diabetes” (McGill University, priority 1998, published 2004):

How the values were obtained:
125I-hGH binding = 125I-hGH binding after preincubating endosomes with ATP; set-up: species or system rat; conditions: preincubation 37° C. 15 min, percent of control
Protocol: (1992) J. Biol. Chem. 267, 11215-11221). Livers were rapidly excised, placed in ice-cold homogenizing buffer (50 mM HEPES (pH 7.4), 0.25 M sucrose, 1 mM PMSF, 1 MM MgCl2, 1 mM benzamidine) and minced before homogenization. Combined ENs and PM fractions were prepared (Faure et al. (1992) J. Biol. Chem. 267, 11215-11221) except that the buffer used throughout was that in which the livers were minced (see above). These subcellular fractions have been characterized in detail both morphologically and biochemically. […] I. et al. (1982) J. Biol. Chem. 257, 5789-5799). Protein content in the fractions was determined by a modification of Bradford's method using serum albumin as a standard (Khan, M. N. et al. […] In the present study we wished to assess whether other processes might be involved in reducing the association of intraendosomal insulin with its receptor. We examined the effect of incubating intact ENs containing IR with increasing concentrations of ATP on subsequently measured insulin and hGH binding in both solubilized and WGA-purified receptors. […] [table]

insulin receptor = target: T1, insulin receptor (Rattus norvegicus, UniProt P15127); test: 125I-insulin binding after preincubating endosomes (ENs containing IR) with nucleotides; conditions: for 125I-insulin specific binding, WGA-purified endosomes / 125I-insulin specific binding, solubilized endosomes: preincubation 37° C. 15 min; for 125I-Insulin specific binding (%), Solubilized endosomes / 125I-Insulin specific binding (%), WGA-purified endosomes: Table 2, normalized to endosomes without nucleotide
T1 construct: from tissue; host or cells: rat liver; endosome (EN) and plasma membrane (PM) fractions
T1 sequence (P15127 27-759 limits assumed): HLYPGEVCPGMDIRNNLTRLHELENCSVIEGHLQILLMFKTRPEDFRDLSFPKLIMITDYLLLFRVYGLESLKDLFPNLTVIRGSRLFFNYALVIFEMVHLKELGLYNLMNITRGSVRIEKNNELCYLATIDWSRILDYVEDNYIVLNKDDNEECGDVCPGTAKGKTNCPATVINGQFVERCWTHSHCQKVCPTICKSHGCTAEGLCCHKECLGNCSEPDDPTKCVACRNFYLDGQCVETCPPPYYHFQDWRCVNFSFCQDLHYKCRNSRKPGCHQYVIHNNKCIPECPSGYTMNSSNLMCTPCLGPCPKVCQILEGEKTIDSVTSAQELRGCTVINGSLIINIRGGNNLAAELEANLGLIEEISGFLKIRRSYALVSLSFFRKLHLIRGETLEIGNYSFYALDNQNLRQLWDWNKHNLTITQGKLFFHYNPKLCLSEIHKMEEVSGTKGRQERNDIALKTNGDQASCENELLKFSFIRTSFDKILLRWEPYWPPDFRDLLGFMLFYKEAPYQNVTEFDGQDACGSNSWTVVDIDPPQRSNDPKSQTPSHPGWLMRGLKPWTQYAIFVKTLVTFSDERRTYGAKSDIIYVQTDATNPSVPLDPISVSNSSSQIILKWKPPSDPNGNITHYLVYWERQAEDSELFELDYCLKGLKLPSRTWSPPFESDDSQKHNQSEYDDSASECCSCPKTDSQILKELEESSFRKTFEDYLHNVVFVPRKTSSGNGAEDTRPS
T1 sequence (P15127 764-1383 limits assumed): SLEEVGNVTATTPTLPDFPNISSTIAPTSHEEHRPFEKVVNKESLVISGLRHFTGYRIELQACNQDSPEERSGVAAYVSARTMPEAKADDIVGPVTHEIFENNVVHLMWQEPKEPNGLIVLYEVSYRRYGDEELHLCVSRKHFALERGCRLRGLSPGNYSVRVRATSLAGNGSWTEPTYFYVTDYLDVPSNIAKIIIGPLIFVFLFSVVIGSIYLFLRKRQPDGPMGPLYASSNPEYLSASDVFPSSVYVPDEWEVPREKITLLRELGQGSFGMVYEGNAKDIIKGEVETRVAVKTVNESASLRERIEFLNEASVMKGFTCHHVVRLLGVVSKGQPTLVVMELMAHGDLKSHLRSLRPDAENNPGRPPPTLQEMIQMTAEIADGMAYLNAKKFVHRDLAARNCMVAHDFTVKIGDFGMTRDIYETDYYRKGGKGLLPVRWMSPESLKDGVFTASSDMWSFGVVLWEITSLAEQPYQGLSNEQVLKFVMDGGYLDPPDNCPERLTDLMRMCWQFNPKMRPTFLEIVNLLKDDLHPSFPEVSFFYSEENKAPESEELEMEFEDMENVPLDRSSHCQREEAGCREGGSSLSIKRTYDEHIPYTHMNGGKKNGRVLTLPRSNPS
Protocol: Rats were anaesthetized with ether and were injected via jugular vein with a dose (per 100 g body weight) of insulin (1.5 μg), or bpV(phen) (0.6 μmol), dissolved in 0.2 ml. phosphate buffered saline (pH 7.4) −0.1% BSA. […] Livers were rapidly excised, placed in ice-cold homogenizing buffer (50 mM HEPES (pH 7.4), 0.25 M sucrose, 1 mM PMSF, 1 MM MgCl2, 1 mM benzamidine) and minced before homogenization. […] These subcellular fractions have been characterized in detail both morphologically and biochemically.
After 10 min at room temperature, the reactions was terminated by spotting 50 μl aliquots on Whatman 3 MM filters.
In the present study we wished to assess whether other processes might be involved in reducing the association of intraendosomal insulin with its receptor. We examined the effect of incubating intact ENs containing IR with increasing concentrations of ATP on subsequently measured insulin and hGH binding in both solubilized and WGA-purified receptors.

[1] = target: T2, insulin receptor kinase (IRK) (Rattus norvegicus, UniProt P15127); test: DTT-dependent reduction of endosomal IRK heterotetramer (non-reducing SDS-PAGE); type: biochemical; conditions: ENs incubated with 5 mM ATP, 10 mM DTT, 15 min 37° C.
T2 construct: from tissue; host or cells: rat liver; endosome (EN) and plasma membrane (PM) fractions
T2 sequence (P15127 27-759 limits assumed): as the sequence (P15127 27-759 limits assumed) above
T2 sequence (P15127 764-1383 limits assumed): as the sequence (P15127 764-1383 limits assumed) above
Protocol: Endosomal pellets containing IR were resuspended (500 μg protein/ml) in a final concentration of 50 mM Tris (pH 6.9), 10% glycerol and 20 mM N-ethylmaleimide. Samples were incubated at room temperature for 5 mins and then solubilized without heating in 2.3% SDS-0.05% bromophenol blue before subjecting to SDS-PAGE in the absence of reductants (Faure et al. ([…]) J. Biol. Chem. 267, 11215-11221).
The above observation raised the possibility that intraluminal events were responsible for deactivation of the endosomal IRK. This led us to investigate whether there might be a conformational change in the IRK consequent to ATP-dependent acidification. To probe this possibility we incubated ENs containing IR with ATP in the presence or absence of 10 mM DTT to assess the ease with which Type I disulfide bonds might be reduced in the heterotetrameric molecule ([…]). […] Hepatic ENs containing IR were prepared 2 mins after insulin injection (1.5 μg/100 g body weight) and were incubated for 15 min at 37° C. in the absence or presence of 10 mM DTT and 5 mM ATP. The ENs were centrifuged and the pellets resuspended and treated as described above. Samples were applied without heating to SDS-PAGE (gradient resolving gel, 3-10% acrylamide) in the absence of reductant. […]

Structure (SMILES): Nc1ncnc2c1ncn2[C@@H]1O[C@H](COP(=O)(O)OP(=O)(O)OP(=O)(O)O)[C@@H](O)[C@H]1O [ATP, adenosine 5′triphosphate]
- 125I-hGH specific binding, WGA-purified endosomes (125I-hGH binding; ATP 0.1 mM): 88.7 ± 3.4%
- 125I-hGH specific binding, solubilized endosomes (125I-hGH binding; ATP 0.1 mM): 105.0 ± 5.1%
- 125I-hGH specific binding, WGA-purified endosomes (125I-hGH binding; ATP 1 mM): 93.3 ± 5.1%
- 125I-hGH specific binding, solubilized endosomes (125I-hGH binding; ATP 1 mM): 84.4 ± 6.6%
- 125I-hGH specific binding, WGA-purified endosomes (125I-hGH binding; ATP 10 mM): 75.2 ± 3.5%
- 125I-hGH specific binding, solubilized endosomes (125I-hGH binding; ATP 10 mM): 98.3 ± 3.5%
- 125I-insulin specific binding, WGA-purified endosomes (insulin receptor; ATP 0.1 mM, percent of control): 107.7 ± 1.5%
- 125I-insulin specific binding, solubilized endosomes (insulin receptor; ATP 0.1 mM, percent of control ENs without ATP): 103.6 ± 2.5%
- 125I-insulin specific binding, WGA-purified endosomes (insulin receptor; ATP 1 mM, percent of control): 123.9 ± 6.2%
- 125I-insulin specific binding, solubilized endosomes (insulin receptor; ATP 1 mM, percent of control): 90.9 ± 4.2%
- 125I-insulin specific binding, WGA-purified endosomes (insulin receptor; ATP 3 mM, percent of control): 99.3 ± 0.9%
- 125I-insulin specific binding, solubilized endosomes (insulin receptor; ATP 3 mM, percent of control): 96.7 ± 2.6%
- 125I-insulin specific binding, WGA-purified endosomes (insulin receptor; ATP 5 mM, percent of control): 52.1 ± 1.2%
- 125I-insulin specific binding, solubilized endosomes (insulin receptor; ATP 5 mM, percent of control): 84.2 ± 2.7%
- 125I-insulin specific binding, WGA-purified endosomes (insulin receptor; ATP 10 mM, percent of control): 8.4 ± 0.2%
- 125I-Insulin specific binding (%), Solubilized endosomes (insulin receptor; addition 0.1 mM, 37° C. 15 min): 103.4 ± 2.5%
- 125I-Insulin specific binding (%), WGA-purified endosomes (insulin receptor; addition 0.1 mM, 37° C. 15 min): 108.1 ± 2.0%
- 125I-Insulin specific binding (%), Solubilized endosomes (insulin receptor; addition 1 mM, 37° C. 15 min): 95.5 ± 14.2%
- 125I-Insulin specific binding (%), WGA-purified endosomes (insulin receptor; addition 1 mM, 37° C. 15 min): 92.2 ± 2.2%
- 125I-Insulin specific binding (%), Solubilized endosomes (insulin receptor; addition 10 mM at 4° C. (on ice)): 112.0 ± 3.3%
- 125I-Insulin specific binding (%), Solubilized endosomes (insulin receptor; addition 10 mM, 37° C. 15 min): 43.6 ± 6.3%
- 125I-Insulin specific binding (%), WGA-purified endosomes (insulin receptor; addition 10 mM, 37° C. 15 min): 25.2 ± 5.2%
- Ability of DTT to reduce tetrameric IRK molecules (FIG. 8) [1]: significantly decreased
